In patent US20260285850A1, “SUBSTITUTED OXAZOLIDINONES AND IMIDAZOLINONES AS HERBICIDES” (FMC CORPORATION, priority 2023, published 2026):

Assays:
Assay type in all cases: in vivo
[1] = system: barnyardgrass (Echinochloa crus-galli); assay: Test A preemergence soil spray, visual injury rating 0-100; details: 10 days
Method in brief: (§1)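 Directed preemergence spray onto seeded soil or postemergence spray onto 2-10 cm plants (loam plus sand); compound carried in surfactant-containing non-phytotoxic solvent. Injury rated by eye after 10 d greenhouse growth; 0 = no effect, 100 = complete control.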

[2] = system: blackgrass (Alopecurus myosuroides); assay: as above; details: 10 days
Method in brief: as §1

[3] = system: corn (Zea mays); assay: as above; details: 10 days
Method in brief: as §1

[4] = system: green foxtail (Setaria viridis); assay: as above; details: 10 days
Method in brief: as §1

[5] = system: kochia (Bassia scoparia); assay: as above; details: 10 days
Method in brief: as §1

[6] = system: oat, wild (wild oat, Avena fatua); assay: as above; details: 10 days
Method in brief: as §1

[7] = system: palmer (palmer amaranth, palmer pigweed, Amaranthus palmeri); assay: as above; details: 10 days
Method in brief: as §1

[8] = system: ragweed (common ragweed, Ambrosia artemisiifolia); assay: as above; details: 10 days
Method in brief: as §1

[9] = system: ryegrass, Italian (italian ryegrass, Lolium multiflorum); assay: as above; details: 10 days
Method in brief: as §1

[10] = system: soybean (Glycine max); assay: as above; details: 10 days
Method in brief: as §1

[11] = system: wheat (Triticum aestivum); assay: as above; details: 10 days
Method in brief: as §1

[12] = system: barnyardgrass (Echinochloa crus-galli); assay: Test A postemergence application, visual injury rating 0-100
Method in brief: as §1

[13] = system: blackgrass (Alopecurus myosuroides); assay: as above
Method in brief: as §1

[14] = system: corn (Zea mays); assay: as above
Method in brief: as §1

[15] = system: galium (catchweed bedstraw, Galium aparine); assay: as above
Method in brief: as §1

[16] = system: green foxtail (Setaria viridis); assay: as above
Method in brief: as §1

[17] = system: horseweed (Erigeron canadensis); assay: as above
Method in brief: as §1

[18] = system: kochia (Bassia scoparia); assay: as above
Method in brief: as §1

[19] = system: oat, wild (wild oat, Avena fatua); assay: as above
Method in brief: as §1

[20] = system: palmer (palmer amaranth, palmer pigweed, Amaranthus palmeri); assay: as above
Method in brief: as §1

[21] = system: ragweed (common ragweed, Ambrosia artemisiifolia); assay: as above
Method in brief: as §1

[22] = system: ryegrass, Italian (italian ryegrass, Lolium multiflorum); assay: as above
Method in brief: as §1

[23] = system: soybean (Glycine max); assay: as above
Method in brief: as §1

[24] = system: wheat (Triticum aestivum); assay: as above
Method in brief: as §1

[25] = system: barnyardgrass (Echinochloa crusgalli); assay: Test B flooded paddy test, visual plant response rating 0-100; details: 250 g ai/ha, Flood, applied to paddy water, evaluated after 13 days
Method in brief: (§2)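 Plants were grown to the 2-leaf stage, then pots were flooded to 3 cm above the soil and compound was applied directly to the paddy water, with that depth kept throughout.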

[26] = system: ducksalad (Heteranthera limosa); assay: as above; details: 250 g ai/ha, Flood, applied to paddy water, evaluated after 13 days
Method in brief: as §2

[27] = system: rice (Oryza sativa); assay: as above; details: 250 g ai/ha, Flood, applied to paddy water, evaluated after 13 days
Method in brief: as §2

[28] = system: sedge, umbrella (small-flower umbrella sedge, Cyperus difformis); assay: as above; details: 250 g ai/ha, Flood, applied to paddy water, evaluated after 13 days
Method in brief: as §2

[29] = 62 g ai/ha, 0 = no effect, 100 = complete control
[30] = 62 g ai/ha, postemergence, 10 days, 0 = no effect, 100 = complete control
[31] = Postemergence, 16 g ai/ha, greenhouse 10 days, 0 no effect, 100 complete control

## CC1(C(=O)NC2CC=C(C(=O)OCC(F)(F)F)C2)CN(c2cc(Cl)cc(Cl)c2)C(=O)O1 (stereo not shown) [Compound 96]
[1]; 16 g ai/ha, 0 to 100 scale
  Barnyardgrass plant response rating: 10
[1]; [29]
  Barnyardgrass plant response rating (0-100): 60
[2]; 16 g ai/ha, 0 to 100 scale
  Blackgrass plant response rating: 0
[2]; [29]
  Blackgrass plant response rating (0-100): 0
[3]; 16 g ai/ha, 0 to 100 scale
  Corn plant response rating: 0
[3]; [29]
  Corn plant response rating (0-100): 40
[4]; 16 g ai/ha, 0 to 100 scale
  Foxtail, Green plant response rating: 10
[4]; [29]
  Foxtail, Green plant response rating (0-100): 90
[5]; 16 g ai/ha, 0 to 100 scale
  Kochia plant response rating: 0
[5]; [29]
  Kochia plant response rating (0-100): 0
[6]; 16 g ai/ha, 0 to 100 scale
  Oat, Wild plant response rating: 0
[6]; [29]
  Oat, Wild plant response rating (0-100): 20
[7]; 16 g ai/ha, 0 to 100 scale
  Pigweed, Palmer plant response rating: 100
[7]; [29]
  Pigweed, Palmer plant response rating (0-100): 90
[8]; 16 g ai/ha, 0 to 100 scale
  Ragweed plant response rating: 0
[8]; [29]
  Ragweed plant response rating (0-100): 0
[9]; 16 g ai/ha, 0 to 100 scale
  Ryegrass, Italian plant response rating: 20
[9]; [29]
  Ryegrass, Italian plant response rating (0-100): 60
[10]; 16 g ai/ha, 0 to 100 scale
  Soybean plant response rating: 10
[10]; [29]
  Soybean plant response rating (0-100): 30
[11]; 16 g ai/ha, 0 to 100 scale
  Wheat plant response rating: 0
[11]; [29]
  Wheat plant response rating (0-100): 0
[12]; [30]
  Barnyardgrass plant response rating (0-100): 100
[12]; [31]
  Barnyardgrass plant response rating (0 to 100 scale): 100
[13]; [30]
  Blackgrass plant response rating (0-100): 90
[13]; [31]
  Blackgrass plant response rating (0 to 100 scale): 80
[14]; [30]
  Corn plant response rating (0-100): 100
[14]; [31]
  Corn plant response rating (0 to 100 scale): 100
[15]; [30]
  Galium plant response rating (0-100): 90
[15]; [31]
  Galium plant response rating (0 to 100 scale): 70
[16]; [30]
  Foxtail, Green plant response rating (0-100): 90
[16]; [31]
  Foxtail, Green plant response rating (0 to 100 scale): 90
[17]; [30]
  Horseweed plant response rating (0-100): 70
[17]; [31]
  Horseweed plant response rating (0 to 100 scale): 40
[18]; [30]
  Kochia plant response rating (0-100): 80
[18]; [31]
  Kochia plant response rating (0 to 100 scale): 70
[19]; [30]
  Oat, Wild plant response rating (0-100): 80
[19]; [31]
  Oat, Wild plant response rating (0 to 100 scale): 50
[20]; [30]
  Pigweed, Palmer plant response rating (0-100): 90
[20]; [31]
  Pigweed, Palmer plant response rating (0 to 100 scale): 70
[21]; [30]
  Ragweed plant response rating (0-100): 60
[21]; [31]
  Ragweed plant response rating (0 to 100 scale): 40
[22]; [30]
  Ryegrass, Italian plant response rating (0-100): 90
[22]; [31]
  Ryegrass, Italian plant response rating (0 to 100 scale): 80
[23]; [30]
  Soybean plant response rating (0-100): 80
[23]; [31]
  Soybean plant response rating (0 to 100 scale): 80
[24]; [30]
  Wheat plant response rating (0-100): 90
[24]; [31]
  Wheat plant response rating (0 to 100 scale): 30
[25]
  Plant response rating, Barnyardgrass (0 to 100 scale, 0 is no effect and 100 is complete control): 95
[26]
  Plant response rating, Ducksalad (0 to 100 scale, 0 is no effect and 100 is complete control): 70
[27]
  Plant response rating, Rice (0 to 100 scale, 0 is no effect and 100 is complete control): 25
[28]
  Plant response rating, Sedge, Umbrella (0 to 100 scale, 0 is no effect and 100 is complete control): 95
